Data from patent US6656942B2, “Orally active salts with tyrosine kinase activity” (Merck & Co., Inc., priority 2000, dated 2003).
Counter-ions that a name gives are not always drawn. One block for each molecule: values may come before it.

Columns and labels:
Type in all cases: physicochemical
[1] = Solubility of crystalline mesylate salts 1-11A and 1-11B
Experimental: The amorphous mesylate salt was recrystallized from 50:50 Ethanol:THF to give a crystalline powder (Salt 1-11A). The X-ray powder diffraction pattern (XRPD) of the recrystallized mesylate salt 1-11A (FIG. 2) is indicative of crystalline material with multiple diffraction peaks between 5° and 30° 2-theta.
A second batch of crystalline mesylate salt (Salt 1-11B) was obtained by the following procdeure. To a stirred suspension of 1-11 (4.026 g, 9.22 mmol) in MeOH was slowly added at room temperature (RT) one equivalent of a 0.3M solution of methanesulfonic acid (30.73 mL). After all the solid had dissolved, the mixture was filtered into a flask and concentrated under reduced pressure while cooled to about 10° C. The resulting solid was suspended with 200 mL of ethylacetate, filtered, and dried to afford the mesylate salt. […] This crystalline form is different by XRPD than the one recrystallized from the amorphous salt in EtOH/THF (Salt 1-11A).

[2] = Solubility of free base 1-11 at room temperature in 0.05M aqueous buffers, water, organic solvents and HPβCD
Experimental: The solubility of 1-11 at room temperature was determined in 0.05M aqueous buffers, water and several organic solvents.

[3] = Solubility and pH of salts of 4-9 prepared in situ; conditions: for solubility: 1.05 mole equivalents of acid, 100 μL of water, spun overnight, HPLC; for pH: pH of the liquid residue of the sample
Experimental: Two forms of the mesylate salt were made: Salt 4-9A above and Salt 4-9B below. Numerous salts of 4-9 were prepared in situ and analyzed using the procedure outlined below,
3) The reagents were mixed with a Vortex mixer and left to stand at room temperature or warmed if needed to dissolve the solid.
4) 100 μL of water were added to suspend the solid.
5) Tube was then covered with aluminum foil and spun overnight on a rotator.
6) The tube was then spun in a centrifuge for 10 minutes at 10,000 RPM.
7) An aliquot was removed from the sample and dried with nitrogen overnight to produce the solid residue (salt) which was analyzed via microscopy and DCS.
8) The liquid residue from the remaining sample was used to measure pH and determine the concentration of salt by HPLC.

[4] = Aqueous solubility at room temperature, quantitated by HPLC; conditions: for aqueous solubility at room temperature / solubility: water, HPLC, room temperature; for crystallization out of the concentrated aqueous solution: time scale of the experiment (24 hours); for solubility: thermodynamic from solid
Experimental: The free base 2-1 is a yellow powder. […] The crystals appear plate-like with most of the particles below 10 microns. […] The aqueous solubility was measured using HPLC to quantitate the compound in suspension.
The mesylate salt 2-1A is a yellow powder. […] A broad non-reversible endotherm centered around 87° C. is attributed to loss of solvent/moisture. The aqueous solubility was measured using HPLC to quantitate the compound.
The HCl salt 2-1B was also a yellow powder. […] This indicates the presence of both amorphous and crystalline material. […] The aqueous solubility was measured using HPLC to quantitate the compound.
The free base is a yellow powder which contains particles that are birefringent under polarized light indicating the presence of crystalline material. […] The aqueous solubility was measured using HPLC to quantitate the compound in an aqueous suspension.
The HCl salt is also a yellow solid, which contains particles that are birefringent under polarized light indicating the presence of crystalline material. […] The aqueous solubility was measured using HPLC to quantitate the compound in suspension.
The yellow, mesylate salt was examined under polarized light by optical microscopy. […] It is possible that the small amount of crystalline solid went undetected by optical microscopy. The aqueous solubility was measured using HPLC to quantitate the compound in suspension.
This mesylate salt 4-9A, which is a yellow powder, was examined under polarized light by optical microscopy. The crystals appear birefringent under polarized light indicating crystallinity. The crystals appear plate-like with few agglomerates. […] The aqueous solubility was measured using HPLC to quantitate the compound in suspension.

[5] = Measurement of salt solubility: free base 1-11 treated with acid, suspended in water, HPLC; conditions: for pH: pH in equilibrium with the solid phase, most likely lower than pH of the salt in water; for solubility: salt made in situ with 1.05-1.1 molar equivalence of acid, suspended in water several days, method overestimates the solubility
Experimental: The pH and concentration of the compound in equilibrium with the solid phase was measured by HPLC (UV-Vis detection).

Structure (SMILES): CS(=O)(=O)N1CCN(Cc2ccc3[nH]c(-c4cc5ccccc5[nH]c4=O)cc3c2)CC1 [Salt 1-11B]
solubility ([1]; Acetonitrile): 30 µg/mL
solubility ([1]; Isopropanol): 3 µg/mL
solubility ([1]; Water): 90 µg/mL

Structure (SMILES): CS(=O)(=O)N1CCN(Cc2ccc3[nH]c(-c4cc5ccccc5[nH]c4=O)cc3c2)CC1 [Salt 1-11, 3-[5-(4-Methanesulfonyl-piperazin-1-ylmethyl)-1H-indol-2-yl]-1H-quinolin-2-one]
solubility ([2]; 0.05 M carbonate buffer, pH 10.09, aqueous buffer, 0.05 M Carbonate, pHfinal 10.09, room temperature): 79 µg/mL
solubility ([2]; 0.05 M carbonate buffer, pH 11.15, aqueous buffer, 0.05 M Carbonate, pHfinal 11.15, room temperature): 77 µg/mL
solubility ([2]; 0.05 M citrate buffer, pH 3.23, aqueous buffer, 0.05 M Citrate, pHfinal 3.23, room temperature): 92 µg/mL
solubility ([2]; 0.05 M citrate buffer, pH 4.15, aqueous buffer, 0.05 M Citrate, pHfinal 4.15, room temperature): 73 µg/mL
solubility ([2]; 0.05 M citrate buffer, pH 5.07, aqueous buffer, 0.05 M Citrate, pHfinal 5.07, room temperature): 70 µg/mL
solubility ([2]; 0.05 M citrate buffer, pH 6.01, aqueous buffer, 0.05 M Citrate, pHfinal 6.01, room temperature): 71 µg/mL
solubility ([2]; 0.05 M phosphate buffer, pH 6.96, aqueous buffer, 0.05 M Phosphate, pHfinal 6.96, room temperature): 71 µg/mL
solubility ([2]; 0.05 M phosphate buffer, pH 7.93, aqueous buffer, 0.05 M Phosphate, pHfinal 7.93, room temperature): 74 µg/mL
solubility ([2]; 0.05 M phosphate buffer, pH 8.86, aqueous buffer, 0.05 M Phosphate, pHfinal 8.86, room temperature): 73 µg/mL
solubility ([2]; 25% HPβCD in water, aqueous with cosolvent or surfactant or cyclodextrin, 25% HPβCD, native pH in water (pH = 7.5)): 168 µg/mL
solubility ([2]; 50% aqueous Can (probably ACN, acetonitrile), aqueous with cosolvent or surfactant or cyclodextrin, 50% Aqueous Can, room temperature): 60 µg/mL
solubility ([2]; Water, room temperature): 0.03 µg/mL
solubility ([2]; organic solvent or mixture, Acetonitrile, room temperature): 84 µg/mL
solubility ([2]; organic solvent or mixture, Ethanol, room temperature): 19 µg/mL
solubility ([2]; organic solvent or mixture, Isopropanol, room temperature): 6.5 µg/mL
solubility ([2]; pH 2.45, simulated gastric fluid, 0.01 N HCl, pHfinal 2.45, room temperature): 400 µg/mL
solubility ([2]; pH 3, aqueous with cosolvent or surfactant or cyclodextrin, 10% HPβCD, pH adjusted to ca. 3.0 with HCl): 1740 µg/mL
solubility ([2]; pH 3, aqueous with cosolvent or surfactant or cyclodextrin, 15% HPβCD, pH adjusted to ca. 3.0 with HCl): 2350 µg/mL
solubility ([2]; pH 3, aqueous with cosolvent or surfactant or cyclodextrin, 20% HPβCD, pH adjusted to ca. 3.0 with HCl): 3570 µg/mL
solubility ([2]; pH 3, aqueous with cosolvent or surfactant or cyclodextrin, 25% HPβCD, pH adjusted to ca. 3.0 with HCl): 4560 µg/mL

Structure (SMILES): CN1CCN(Cc2ccc3[nH]c(-c4cc5ccccc5[nH]c4=O)cc3c2)CCC1=O [Salt 2-1A, 4-Methyl-5-oxo-1-[2-(2-oxo-1.2-dihydro-quinolin-3-yl)-1H-indol-5-ylmethyl]-[1,4]diazepan-1-ium; methanesulfonate; methanesulfonate]
crystallization out of the concentrated aqueous solution [4]: no crystallization was observed
aqueous solubility at room temperature [4]: greater than 9.89 mg/mL

Structure (SMILES): CS(=O)(=O)N1CCN(Cc2ccc3[nH]c(-c4cc5ccccc5[nH]c4=O)cc3c2)CC1 [HCl salt of 1-11]
pH [5]: 2.3
solubility [5]: 430 µg/mL

Structure (SMILES): CS(=O)(=O)N1CCN(Cc2ccc3[nH]c(-c4cc5ccccc5[nH]c4=O)cc3c2)CC1 [Besylate salt of 1-11]
pH [5]: 2.4
solubility [5]: 3.8 µg/mL

Structure (SMILES): COCCN(C)CCOc1ccc2[nH]c(-c3cc4ccccc4[nH]c3=O)cc2c1.CS(=O)(=O)O [Salt 4-9A, 2-methoxy-N-methyl-N-(2-{[2-(2-oxo-1,2-dihydroquinolin-3-yl)-1H-indol-5-yl]oxy}ethyl)ethanaminium methanesulfonate]
solubility [4]: 1500 µg/mL

Structure (SMILES): CS(=O)(=O)N1CCN(Cc2ccc3[nH]c(-c4cc5ccccc5[nH]c4=O)cc3c2)CC1 [Salt 1-11A]
solubility ([1]; Acetonitrile): 63 µg/mL
solubility ([1]; Isopropanol): 20 µg/mL
solubility ([1]; Water): 173 µg/mL

Structure (SMILES): CS(=O)(=O)N1CCN(Cc2ccc3[nH]c(-c4cc5ccccc5[nH]c4=O)cc3c2)CC1 [Maleate salt of 1-11]
pH [5]: 2.5
solubility [5]: 160 µg/mL

Structure (SMILES): CN1CCN(Cc2ccc3[nH]c(-c4cc5ccccc5[nH]c4=O)cc3c2)CCC1=O.Cl [Salt 2-1B, 4-Methyl-5-oxo-1-[2-(2-oxo-1,2-dihydro-quinolin-3-yl)-1H-indol-5-ylmethyl]-[1,4]diazepan-1-ium; methanesulfonate; chloride]
crystallization out of the concentrated aqueous solution [4]: did not crystallize out
solubility [4]: > 10200 µg/mL

Structure (SMILES): CS(=O)(=O)N1CCN(Cc2ccc3[nH]c(-c4cc5ccccc5[nH]c4=O)cc3c2)CC1 [Mesylate salt of 1-11]
pH [5]: 2.3
solubility [5]: 580 µg/mL

Structure (SMILES): CN1CCN(Cc2ccc3[nH]c(-c4cc5ccccc5[nH]c4=O)cc3c2)CCC1=O [Salt 2-1, 3-[5-(4-Methyl-5-oxo-[1,4]diazepan-1-ylmethyl)-1H-indol-2-yl]-1H-quinolin-2-one]
aqueous solubility at room temperature [4]: 28 µg/mL

Structure (SMILES): CS(=O)(=O)N1CCN(Cc2ccc3[nH]c(-c4cc5ccccc5[nH]c4=O)cc3c2)CC1 [HBr salt of 1-11]
pH [5]: 2.9
solubility [5]: 200 µg/mL

Structure (SMILES): CS(=O)(=O)N1CCN(Cc2ccc3[nH]c(-c4cc5ccccc5[nH]c4=O)cc3c2)CC1 [Acetate salt of 1-11]
pH [5]: 3.3
solubility [5]: 91 µg/mL

Structure (SMILES): CS(=O)(=O)N1CCN(Cc2ccc3[nH]c(-c4cc5ccccc5[nH]c4=O)cc3c2)CC1 [Sulfate salt of 1-11]
pH [5]: 1.5
solubility [5]: 130 µg/mL

Now from value to molecule:

solubility [3]: 22400 µg/mL
pH [3]: 2.34
Structure (SMILES): COCCN(C)CCOc1ccc2[nH]c(-c3cc4ccccc4[nH]c3=O)cc2c1 [HCl salt of 4-9]

aqueous solubility at room temperature [4]: 1310 µg/mL
Structure (SMILES): O=C(CO)N1CCN(Cc2ccc3[nH]c(-c4cc5ccccc5[nH]c4=O)cc3c2)CC1 [Salt 3-10A, 4-(2-Hydroxy-ethanoyl) 1-[2-(2-oxo-1,2-dihydro-quinolin-3-yl)-1H-indol-5-ylmethyl]-piperazin-1H-ium; chloride]

solubility ([3]; pH 6.75, thermodynamic from solid, read-out: Solubility): 75 µg/mL
pH [3]: 6.75
Structure (SMILES): COCCN(C)CCOc1ccc2[nH]c(-c3cc4ccccc4[nH]c3=O)cc2c1 [4-9 Free Base, 3-(5-{2-[(2-methoxyethyl)(methyl)amino]ethoxy}-1H-indol-2-yl)-2(1H)-quinolinone]

solubility [3]: 22000 µg/mL
pH [3]: 5.08
Structure (SMILES): COCCN(C)CCOc1ccc2[nH]c(-c3cc4ccccc4[nH]c3=O)cc2c1 [Mesylate 4-9B]

solubility [3]: 4350 µg/mL
pH [3]: 1.40
Structure (SMILES): COCCN(C)CCOc1ccc2[nH]c(-c3cc4ccccc4[nH]c3=O)cc2c1 [Sulfate salt of 4-9]

aqueous solubility at room temperature [4]: 63.5 µg/mL
Structure (SMILES): O=C(CO)N1CCN(Cc2ccc3[nH]c(-c4cc5ccccc5[nH]c4=O)cc3c2)CC1 [Salt 3-10, 3-{5-[4-(2-Hydroxy-ethanoyl)-piperazin-1-ylmethyl]-1H-indol-2-yl}-1H-quinolin-2-one]

aqueous solubility at room temperature ([4]; methanesulfonate): 2430 µg/mL
Structure (SMILES): O=C(CO)N1CCN(Cc2ccc3[nH]c(-c4cc5ccccc5[nH]c4=O)cc3c2)CC1 [Salt 3-10B, 4-(2-Hydroxy-ethanoyl)-1-[2-(2-oxo-1,2-dihydro-quinolin-3-yl)-1H-indol-5-ylmethyl]-piperazin-1-ium; methanesulfonate]
